{
  "source": "patent US20170190705A1",
  "about": "“Compositions and Methods for Inhibiting BMP” (THE BRIGHAM AND WOMAN'S HOSPITAL, INC., priority 2014, published 2017)",
  "key": {"CDK4/cyclinD": {"target": "CDK4/cyclinD (Homo sapiens, UniProt P11802)", "sequence (P11802 whole entry)": "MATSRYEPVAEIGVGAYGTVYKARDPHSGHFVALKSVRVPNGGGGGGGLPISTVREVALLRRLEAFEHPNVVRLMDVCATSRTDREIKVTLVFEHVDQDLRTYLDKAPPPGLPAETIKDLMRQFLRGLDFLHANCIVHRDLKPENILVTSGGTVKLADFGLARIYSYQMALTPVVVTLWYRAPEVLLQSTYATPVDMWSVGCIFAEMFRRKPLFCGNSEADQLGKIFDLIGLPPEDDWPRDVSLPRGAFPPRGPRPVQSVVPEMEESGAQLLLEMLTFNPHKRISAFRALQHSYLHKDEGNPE", "sequence (P24385 whole entry partner)": "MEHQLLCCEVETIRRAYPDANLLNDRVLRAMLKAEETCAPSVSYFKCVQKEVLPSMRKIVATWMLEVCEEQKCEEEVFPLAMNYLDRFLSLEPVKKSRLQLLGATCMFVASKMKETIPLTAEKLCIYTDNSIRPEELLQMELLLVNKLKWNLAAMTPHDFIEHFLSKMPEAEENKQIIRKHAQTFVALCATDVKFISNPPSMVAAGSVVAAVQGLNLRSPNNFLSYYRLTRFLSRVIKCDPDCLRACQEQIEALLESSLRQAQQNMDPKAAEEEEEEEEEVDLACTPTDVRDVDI", "test": "Kinome profiling CDK4/cyclinD", "assay_type": "biochemical", "conditions": "read-out: Inhibitory activity CDK4/cyclinD; for inhibition at 0.1 µM: 100 nM", "method": "(§1) . The kinome-wide selectivity was determined following the methods previously reported by Mohedas et al., ACS Chem Biol 2013, 8, 1291-1302 and Sanvitale et al., PLoS One 2013, 8, e62721."}, "FLT-1": {"target": "FLT-1 (Homo sapiens, UniProt P17948)", "sequence (P17948 27-1338)": "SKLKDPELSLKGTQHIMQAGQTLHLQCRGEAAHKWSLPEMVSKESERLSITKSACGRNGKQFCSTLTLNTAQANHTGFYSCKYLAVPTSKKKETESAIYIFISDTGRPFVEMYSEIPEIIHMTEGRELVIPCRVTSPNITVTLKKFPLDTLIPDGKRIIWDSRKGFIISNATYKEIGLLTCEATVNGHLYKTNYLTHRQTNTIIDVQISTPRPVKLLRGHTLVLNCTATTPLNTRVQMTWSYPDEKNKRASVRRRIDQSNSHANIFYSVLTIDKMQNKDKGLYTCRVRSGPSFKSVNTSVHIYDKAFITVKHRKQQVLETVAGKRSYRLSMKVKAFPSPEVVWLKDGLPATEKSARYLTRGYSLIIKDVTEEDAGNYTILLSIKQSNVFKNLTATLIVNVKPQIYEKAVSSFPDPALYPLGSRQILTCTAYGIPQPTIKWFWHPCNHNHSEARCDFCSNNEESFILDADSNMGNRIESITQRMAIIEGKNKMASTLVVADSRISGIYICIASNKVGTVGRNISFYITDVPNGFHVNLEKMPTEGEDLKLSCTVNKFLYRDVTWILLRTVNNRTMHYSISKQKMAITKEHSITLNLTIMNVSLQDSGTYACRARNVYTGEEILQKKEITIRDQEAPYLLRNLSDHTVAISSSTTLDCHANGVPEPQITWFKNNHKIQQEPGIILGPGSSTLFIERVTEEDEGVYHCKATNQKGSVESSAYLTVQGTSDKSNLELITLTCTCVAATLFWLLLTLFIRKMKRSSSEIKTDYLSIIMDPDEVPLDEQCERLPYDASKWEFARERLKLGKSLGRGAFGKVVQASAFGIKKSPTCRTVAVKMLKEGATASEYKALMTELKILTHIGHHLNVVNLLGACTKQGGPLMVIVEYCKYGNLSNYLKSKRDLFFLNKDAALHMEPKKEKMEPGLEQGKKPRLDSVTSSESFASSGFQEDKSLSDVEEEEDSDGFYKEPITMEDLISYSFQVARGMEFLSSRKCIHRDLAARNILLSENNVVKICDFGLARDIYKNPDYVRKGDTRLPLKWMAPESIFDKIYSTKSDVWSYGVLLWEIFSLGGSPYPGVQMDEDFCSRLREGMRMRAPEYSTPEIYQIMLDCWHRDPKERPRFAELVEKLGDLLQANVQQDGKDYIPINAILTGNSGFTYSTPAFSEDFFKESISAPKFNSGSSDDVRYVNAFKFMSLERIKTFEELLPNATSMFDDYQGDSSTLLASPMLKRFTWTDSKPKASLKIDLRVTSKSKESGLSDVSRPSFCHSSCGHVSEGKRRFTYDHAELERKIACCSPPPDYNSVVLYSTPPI", "test": "Kinome profiling FLT-1", "assay_type": "biochemical", "conditions": "read-out: Inhibitory activity FLT-1; for inhibition at 0.1 µM: 100 nM", "method": "as §1"}, "CK1α": {"target": "CK1α (Homo sapiens, UniProt P48729)", "test": "Kinome profiling CK1α", "assay_type": "biochemical", "conditions": "read-out: Inhibitory activity CK1α; for inhibition at 0.1 µM: 100 nM", "method": "as §1"}, "LRRK2-G2019S": {"target": "LRRK2-G2019S (Homo sapiens, UniProt Q5S007, G2019S)", "sequence (Q5S007 whole entry G2019S)": "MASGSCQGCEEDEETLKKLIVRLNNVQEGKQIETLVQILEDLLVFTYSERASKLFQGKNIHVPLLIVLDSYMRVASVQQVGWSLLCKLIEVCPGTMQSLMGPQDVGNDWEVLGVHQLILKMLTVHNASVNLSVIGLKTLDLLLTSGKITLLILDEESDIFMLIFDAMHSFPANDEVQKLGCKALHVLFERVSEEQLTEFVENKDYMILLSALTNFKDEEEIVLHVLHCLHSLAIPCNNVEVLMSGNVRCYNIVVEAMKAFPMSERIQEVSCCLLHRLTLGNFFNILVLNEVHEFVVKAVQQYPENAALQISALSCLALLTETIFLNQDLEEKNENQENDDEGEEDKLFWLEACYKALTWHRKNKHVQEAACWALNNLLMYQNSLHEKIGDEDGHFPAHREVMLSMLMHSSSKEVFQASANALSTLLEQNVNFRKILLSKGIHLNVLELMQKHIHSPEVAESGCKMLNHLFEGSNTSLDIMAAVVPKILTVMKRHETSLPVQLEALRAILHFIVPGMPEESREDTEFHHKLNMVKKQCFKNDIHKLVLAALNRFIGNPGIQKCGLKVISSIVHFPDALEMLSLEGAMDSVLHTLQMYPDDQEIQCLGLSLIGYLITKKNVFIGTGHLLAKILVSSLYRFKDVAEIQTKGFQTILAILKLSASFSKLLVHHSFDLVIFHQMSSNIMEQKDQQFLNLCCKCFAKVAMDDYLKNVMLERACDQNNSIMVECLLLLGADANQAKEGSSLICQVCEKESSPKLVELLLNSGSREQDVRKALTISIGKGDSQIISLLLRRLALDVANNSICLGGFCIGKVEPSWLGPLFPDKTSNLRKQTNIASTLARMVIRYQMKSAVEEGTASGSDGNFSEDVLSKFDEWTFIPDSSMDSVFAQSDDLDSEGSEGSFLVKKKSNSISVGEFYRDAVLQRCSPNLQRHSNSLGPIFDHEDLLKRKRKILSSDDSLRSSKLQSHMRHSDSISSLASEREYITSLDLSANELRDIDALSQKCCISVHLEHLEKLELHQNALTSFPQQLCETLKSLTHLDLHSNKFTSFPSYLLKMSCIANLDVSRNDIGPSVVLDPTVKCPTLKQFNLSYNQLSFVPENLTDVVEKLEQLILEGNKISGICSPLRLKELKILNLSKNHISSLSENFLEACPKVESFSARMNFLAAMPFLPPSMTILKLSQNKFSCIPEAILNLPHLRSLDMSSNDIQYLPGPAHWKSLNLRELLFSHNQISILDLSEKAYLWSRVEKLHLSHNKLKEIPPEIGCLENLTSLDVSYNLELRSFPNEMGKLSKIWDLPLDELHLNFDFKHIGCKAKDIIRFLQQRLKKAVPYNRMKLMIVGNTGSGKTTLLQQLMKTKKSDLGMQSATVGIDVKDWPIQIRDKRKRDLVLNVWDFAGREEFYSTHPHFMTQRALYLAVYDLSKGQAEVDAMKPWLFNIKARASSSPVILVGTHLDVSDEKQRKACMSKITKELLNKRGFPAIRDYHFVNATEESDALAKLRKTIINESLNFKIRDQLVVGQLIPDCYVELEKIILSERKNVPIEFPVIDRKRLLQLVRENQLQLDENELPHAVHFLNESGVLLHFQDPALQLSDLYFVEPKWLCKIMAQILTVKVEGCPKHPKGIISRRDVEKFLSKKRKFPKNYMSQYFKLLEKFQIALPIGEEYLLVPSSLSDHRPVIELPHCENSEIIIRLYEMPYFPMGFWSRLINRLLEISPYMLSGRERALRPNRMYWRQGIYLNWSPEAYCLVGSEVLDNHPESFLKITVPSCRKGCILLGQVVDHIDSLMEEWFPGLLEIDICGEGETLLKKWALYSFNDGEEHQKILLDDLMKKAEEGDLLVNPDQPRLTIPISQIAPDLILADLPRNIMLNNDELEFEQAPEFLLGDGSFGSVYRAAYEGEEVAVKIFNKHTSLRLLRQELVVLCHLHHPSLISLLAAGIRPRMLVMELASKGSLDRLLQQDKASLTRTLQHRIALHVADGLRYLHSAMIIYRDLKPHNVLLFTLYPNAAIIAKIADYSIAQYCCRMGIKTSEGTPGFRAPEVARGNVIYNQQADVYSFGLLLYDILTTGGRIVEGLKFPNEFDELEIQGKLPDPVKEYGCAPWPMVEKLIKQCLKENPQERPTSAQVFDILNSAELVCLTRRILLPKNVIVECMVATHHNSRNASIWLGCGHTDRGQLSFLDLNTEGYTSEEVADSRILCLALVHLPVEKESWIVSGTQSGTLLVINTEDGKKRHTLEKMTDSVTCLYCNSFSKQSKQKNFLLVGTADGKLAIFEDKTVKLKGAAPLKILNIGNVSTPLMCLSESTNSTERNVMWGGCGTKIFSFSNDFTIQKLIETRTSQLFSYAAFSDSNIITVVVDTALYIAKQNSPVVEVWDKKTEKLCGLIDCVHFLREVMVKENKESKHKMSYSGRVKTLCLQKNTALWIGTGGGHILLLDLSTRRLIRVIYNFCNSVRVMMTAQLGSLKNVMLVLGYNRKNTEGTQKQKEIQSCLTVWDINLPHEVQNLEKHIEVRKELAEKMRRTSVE", "test": "Kinome profiling LRRK2-G2019S", "assay_type": "biochemical", "conditions": "read-out: Inhibitory activity LRRK2-G2019S; for inhibition at 0.1 µM: 100 nM", "method": "as §1"}, "GSK3α": {"target": "GSK3α (Homo sapiens, UniProt P49840)", "sequence (P49840 whole entry)": "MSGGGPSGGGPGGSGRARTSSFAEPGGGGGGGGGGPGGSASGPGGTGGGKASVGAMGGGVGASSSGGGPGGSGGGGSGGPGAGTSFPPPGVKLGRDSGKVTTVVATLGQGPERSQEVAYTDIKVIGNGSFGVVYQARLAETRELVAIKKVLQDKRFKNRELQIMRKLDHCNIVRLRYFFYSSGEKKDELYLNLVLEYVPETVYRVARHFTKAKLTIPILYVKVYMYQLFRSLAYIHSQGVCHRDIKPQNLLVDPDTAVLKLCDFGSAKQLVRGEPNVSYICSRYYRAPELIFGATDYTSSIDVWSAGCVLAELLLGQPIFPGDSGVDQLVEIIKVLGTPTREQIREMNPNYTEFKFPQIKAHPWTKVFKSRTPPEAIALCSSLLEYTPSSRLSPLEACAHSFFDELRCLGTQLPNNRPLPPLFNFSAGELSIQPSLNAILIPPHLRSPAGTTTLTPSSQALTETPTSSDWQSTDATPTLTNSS", "test": "Kinome profiling GSK3α", "assay_type": "biochemical", "conditions": "read-out: Inhibitory activity GSK3α; for inhibition at 0.1 µM: 100 nM", "method": "as §1"}, "AMP-A1B1G1": {"target": "AMP-A1B1G1 (Homo sapiens, UniProt Q13131)", "test": "Kinome profiling AMP-A1B1G1", "assay_type": "biochemical", "conditions": "read-out: Inhibitory activity AMP-A1B1G1; for inhibition at 0.1 µM: 100 nM", "method": "as §1"}, "RSK1": {"target": "RSK1 (Homo sapiens, UniProt Q15418)", "test": "Kinome profiling RSK1", "assay_type": "biochemical", "conditions": "read-out: Inhibitory activity RSK1; for inhibition at 0.1 µM: 100 nM", "method": "as §1"}, "PIM3": {"target": "PIM3 (Homo sapiens, UniProt Q86V86)", "test": "Kinome profiling PIM3", "assay_type": "biochemical", "conditions": "read-out: Inhibitory activity PIM3; for inhibition at 0.1 µM: 100 nM", "method": "as §1"}, "PKC-1": {"target": "T1, PKC-1 (Homo sapiens, UniProt P41743)", "T1 sequence (P41743 2-596 limits assumed)": "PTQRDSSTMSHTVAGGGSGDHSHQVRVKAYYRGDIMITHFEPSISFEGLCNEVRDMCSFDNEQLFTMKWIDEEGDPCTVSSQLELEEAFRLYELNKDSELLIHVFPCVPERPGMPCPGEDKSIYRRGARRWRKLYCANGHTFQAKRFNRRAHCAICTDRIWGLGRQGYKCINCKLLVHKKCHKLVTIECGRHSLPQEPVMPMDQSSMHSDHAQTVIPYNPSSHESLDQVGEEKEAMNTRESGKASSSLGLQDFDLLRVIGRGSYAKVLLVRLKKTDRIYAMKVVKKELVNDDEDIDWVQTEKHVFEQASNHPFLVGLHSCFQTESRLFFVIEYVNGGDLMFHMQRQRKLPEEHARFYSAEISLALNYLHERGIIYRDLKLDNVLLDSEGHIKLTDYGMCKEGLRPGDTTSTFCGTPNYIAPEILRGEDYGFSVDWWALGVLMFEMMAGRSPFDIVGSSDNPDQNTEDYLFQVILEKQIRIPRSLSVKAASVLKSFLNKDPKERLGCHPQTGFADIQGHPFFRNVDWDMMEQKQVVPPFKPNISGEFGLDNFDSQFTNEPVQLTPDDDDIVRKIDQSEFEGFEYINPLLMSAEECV", "test": "Kinome profiling PKC-1", "assay_type": "biochemical", "conditions": "read-out: Inhibitory activity PKC-1; for inhibition at 0.1 µM: 100 nM", "method": "as §1"}, "AURORA-C": {"target": "T2, AURORA-C (Homo sapiens, UniProt Q9UQB9)", "T2 sequence (Q9UQB9 1-309)": "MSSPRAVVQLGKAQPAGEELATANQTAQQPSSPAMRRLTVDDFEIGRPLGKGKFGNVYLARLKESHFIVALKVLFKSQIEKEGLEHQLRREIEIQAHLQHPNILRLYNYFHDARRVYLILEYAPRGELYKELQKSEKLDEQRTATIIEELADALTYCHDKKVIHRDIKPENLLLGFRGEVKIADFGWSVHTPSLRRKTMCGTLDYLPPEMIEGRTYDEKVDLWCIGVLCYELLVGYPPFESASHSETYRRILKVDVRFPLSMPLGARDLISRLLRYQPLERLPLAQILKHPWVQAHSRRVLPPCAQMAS", "test": "Kinome profiling AURORA-C", "assay_type": "biochemical", "conditions": "read-out: Inhibitory activity AURORA-C; for inhibition at 0.1 µM: 100 nM", "method": "as §1"}, "EPH-A2": {"target": "EPH-A2 (Homo sapiens, UniProt P29317)", "test": "Kinome profiling EPH-A2", "assay_type": "biochemical", "conditions": "read-out: Inhibitory activity EPH-A2; for inhibition at 0.1 µM: 100 nM", "method": "as §1"}, "PHKγ2": {"target": "T3, PHKγ2 (Homo sapiens, UniProt P15735)", "T3 sequence (P15735 1-406)": "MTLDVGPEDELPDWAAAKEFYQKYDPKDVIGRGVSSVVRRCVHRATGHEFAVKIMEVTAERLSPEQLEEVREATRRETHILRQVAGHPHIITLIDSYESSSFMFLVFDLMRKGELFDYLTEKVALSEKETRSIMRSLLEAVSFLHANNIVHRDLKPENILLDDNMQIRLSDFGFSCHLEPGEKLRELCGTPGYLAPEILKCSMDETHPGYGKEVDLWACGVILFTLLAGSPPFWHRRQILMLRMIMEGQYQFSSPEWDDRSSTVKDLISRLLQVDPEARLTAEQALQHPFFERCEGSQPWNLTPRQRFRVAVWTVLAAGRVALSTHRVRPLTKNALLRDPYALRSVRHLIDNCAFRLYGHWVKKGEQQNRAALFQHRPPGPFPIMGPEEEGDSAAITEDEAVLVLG", "test": "Kinome profiling PHKγ2", "assay_type": "biochemical", "conditions": "read-out: Inhibitory activity PHKγ2; for inhibition at 0.1 µM: 100 nM", "method": "as §1"}, "MAP4K5": {"target": "MAP4K5 (Homo sapiens, UniProt Q9Y4K4)", "test": "Kinome profiling MAP4K5", "assay_type": "biochemical", "conditions": "Table 4, read-out: Inhibitory Activity MAP4K5", "method": "as §1"}, "BMP6": {"system": "BMP6", "test": "Ligand induced transcriptional activity assay BMP6 (BRE-Luc)", "assay_type": "cell-based"}, "TNIK": {"target": "TNIK (Homo sapiens, UniProt Q9UKE5)", "test": "Kinome profiling TNIK", "assay_type": "biochemical", "conditions": "Table 4, read-out: Inhibitory Activity TNIK", "method": "as §1"}},
  "note": "Like-named read-outs stand apart in the source and are kept apart here.",
  "data": [
    {"compound": "COc1cc(-c2cc(-c3ccc(N4CCNCC4)cc3)cnc2N)cc(OC)c1OC", "note": "[Compound 15, 5-(4-(piperazin-1-yl)phenyl)-3-(3,4,5-trimethoxyphenyl)pyridin-2-amine]", "values": [
      {"measurement": "inhibition at 0.1 µM", "setting": "CDK4/cyclinD", "value": 1, "unit": "%"},
      {"measurement": "inhibition at 1 µM", "setting": "CDK4/cyclinD", "value": 3, "unit": "%"},
      {"measurement": "inhibition at 0.1 µM", "setting": "FLT-1", "value": 3, "unit": "%"},
      {"measurement": "inhibition at 1 µM", "setting": "FLT-1", "value": 5, "unit": "%"},
      {"measurement": "inhibition at 0.1 µM", "setting": "CK1α", "value": 5, "unit": "%"},
      {"measurement": "inhibition at 1 µM", "setting": "CK1α", "value": 18, "unit": "%"},
      {"measurement": "inhibition at 0.1 µM", "setting": "LRRK2-G2019S", "value": 16, "unit": "%"},
      {"measurement": "inhibition at 1 µM", "setting": "LRRK2-G2019S", "value": 57, "unit": "%"},
      {"measurement": "inhibition at 0.1 µM", "setting": "GSK3α", "value": 1, "unit": "%"},
      {"measurement": "inhibition at 1 µM", "setting": "GSK3α", "value": 0, "unit": "%"},
      {"measurement": "inhibition at 0.1 µM", "setting": "AMP-A1B1G1", "value": 0, "unit": "%"},
      {"measurement": "inhibition at 1 µM", "setting": "AMP-A1B1G1", "value": 5, "unit": "%"},
      {"measurement": "inhibition at 0.1 µM", "setting": "RSK1", "value": 1, "unit": "%"},
      {"measurement": "inhibition at 1 µM", "setting": "RSK1", "value": 5, "unit": "%"},
      {"measurement": "inhibition at 0.1 µM", "setting": "PIM3", "value": 1, "unit": "%"},
      {"measurement": "inhibition at 1 µM", "setting": "PIM3", "value": -1, "unit": "%"},
      {"measurement": "inhibition at 0.1 µM", "setting": "PKC-1", "value": 1, "unit": "%"},
      {"measurement": "inhibition at 1 µM", "setting": "PKC-1", "value": 1, "unit": "%"},
      {"measurement": "inhibition at 0.1 µM", "setting": "AURORA-C", "value": 3, "unit": "%"},
      {"measurement": "inhibition at 1 µM", "setting": "AURORA-C", "value": 7, "unit": "%"},
      {"measurement": "inhibition at 0.1 µM", "setting": "EPH-A2", "value": -3, "unit": "%"},
      {"measurement": "inhibition at 1 µM", "setting": "EPH-A2", "value": 4, "unit": "%"},
      {"measurement": "inhibition at 0.1 µM", "setting": "PHKγ2", "value": 2, "unit": "%"},
      {"measurement": "inhibition at 1 µM", "setting": "PHKγ2", "value": 3, "unit": "%"}
    ]},
    {"compound": "COc1cc(-c2cc(-c3ccc(N4CCNCC4)cc3)cnc2C)cc(OC)c1OC", "note": "[Compound 10, 1-(4-(6-methyl-5-(3,4,5-trimethoxyphenyl)pyridin-3-yl)phenyl)piperazine]", "values": [
      {"measurement": "inhibition at 0.1 µM", "setting": "CDK4/cyclinD", "value": -3, "unit": "%"},
      {"measurement": "inhibition at 1 µM", "setting": "CDK4/cyclinD", "value": 2, "unit": "%"},
      {"measurement": "inhibition at 0.1 µM", "setting": "FLT-1", "value": 8, "unit": "%"},
      {"measurement": "inhibition at 1 µM", "setting": "FLT-1", "value": 16, "unit": "%"},
      {"measurement": "inhibition at 0.1 µM", "setting": "CK1α", "value": 2, "unit": "%"},
      {"measurement": "inhibition at 1 µM", "setting": "CK1α", "value": 7, "unit": "%"},
      {"measurement": "inhibition at 0.1 µM", "setting": "LRRK2-G2019S", "value": 4, "unit": "%"},
      {"measurement": "inhibition at 1 µM", "setting": "LRRK2-G2019S", "value": 11, "unit": "%"},
      {"measurement": "inhibition at 0.1 µM", "setting": "GSK3α", "value": 1, "unit": "%"},
      {"measurement": "inhibition at 1 µM", "setting": "GSK3α", "value": 1, "unit": "%"},
      {"measurement": "inhibition at 0.1 µM", "setting": "AMP-A1B1G1", "value": 5, "unit": "%"},
      {"measurement": "inhibition at 1 µM", "setting": "AMP-A1B1G1", "value": 1, "unit": "%"},
      {"measurement": "inhibition at 0.1 µM", "setting": "RSK1", "value": 1, "unit": "%"},
      {"measurement": "inhibition at 1 µM", "setting": "RSK1", "value": 1, "unit": "%"},
      {"measurement": "inhibition at 0.1 µM", "setting": "MAP4K5; 100 nM", "value": 43, "unit": "%"},
      {"measurement": "inhibition at 1 µM", "setting": "MAP4K5; 1 μM", "value": 86, "unit": "%"},
      {"measurement": "inhibition at 0.1 µM", "setting": "PIM3", "value": 3, "unit": "%"},
      {"measurement": "inhibition at 1 µM", "setting": "PIM3", "value": 4, "unit": "%"},
      {"measurement": "inhibition at 0.1 µM", "setting": "PKC-1", "value": 12, "unit": "%"},
      {"measurement": "inhibition at 1 µM", "setting": "PKC-1", "value": 3, "unit": "%"},
      {"measurement": "inhibition at 0.1 µM", "setting": "AURORA-C", "value": 1, "unit": "%"},
      {"measurement": "inhibition at 1 µM", "setting": "AURORA-C", "value": 1, "unit": "%"},
      {"measurement": "inhibition at 0.1 µM", "setting": "EPH-A2", "value": -2, "unit": "%"},
      {"measurement": "inhibition at 1 µM", "setting": "EPH-A2", "value": 1, "unit": "%"},
      {"measurement": "IC50", "setting": "BMP6; Table 7, read-out: Ligand Induced BMP6 IC50", "value": 67, "unit": "nM"},
      {"measurement": "IC50", "setting": "BMP6; cell-based signaling inhibition, read-out: BMP6 IC50", "value": "100 ± 1", "unit": "nM"},
      {"measurement": "inhibition at 0.1 µM", "setting": "TNIK; 100 nM", "value": 71, "unit": "%"},
      {"measurement": "inhibition at 1 µM", "setting": "TNIK; 1 μM", "value": 98, "unit": "%"},
      {"measurement": "inhibition at 0.1 µM", "setting": "PHKγ2", "value": 1, "unit": "%"},
      {"measurement": "inhibition at 1 µM", "setting": "PHKγ2", "value": 0, "unit": "%"}
    ]}
  ]
}
